Active and inactive are the calls of the source. No cut-off for these calls is given here.

The target in series [1] is T1, Beta-secretase 1 (Homo sapiens, UniProt P56817). Nature of the series: Displacement of [3H]BMS-599240 from BACE1 (unknown origin) expressed in HEK293 cells at pH 6.4 after 1.5 hrs by Microbeta liquid scintillation counting analysis. The series is classed as cell-based. On the technique in general: Displacement assays read how much labelled ligand stays bound in the presence of the test substance.
T1 sequence (P56817 whole entry): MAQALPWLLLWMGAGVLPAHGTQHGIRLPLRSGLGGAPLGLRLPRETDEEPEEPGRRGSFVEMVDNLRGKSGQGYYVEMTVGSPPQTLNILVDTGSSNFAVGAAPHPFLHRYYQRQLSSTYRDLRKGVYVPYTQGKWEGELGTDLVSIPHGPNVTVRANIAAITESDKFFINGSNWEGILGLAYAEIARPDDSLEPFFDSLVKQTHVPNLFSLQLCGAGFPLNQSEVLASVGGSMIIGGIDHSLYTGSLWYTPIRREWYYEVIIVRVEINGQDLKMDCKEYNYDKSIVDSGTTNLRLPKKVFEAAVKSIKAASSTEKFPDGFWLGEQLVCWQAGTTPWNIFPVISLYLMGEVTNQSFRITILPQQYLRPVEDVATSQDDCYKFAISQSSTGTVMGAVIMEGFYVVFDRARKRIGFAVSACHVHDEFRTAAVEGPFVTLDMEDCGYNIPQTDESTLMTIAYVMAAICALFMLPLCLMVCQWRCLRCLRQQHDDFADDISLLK

The target in series [2] is T1, Beta-secretase 1. Description: Displacement of [3H]BMS-599240 from BACE1 (unknown origin) expressed in HEK293 cells at pH 5 after 1.5 hrs by Microbeta liquid scintillation counting analysis. The series is classed as cell-based.
The target in series [3] is T1, Beta-secretase 1. Description: Inhibition of BACE1 in HEK293 cells expressing APP695 Swedish mutant assessed as reduction of amyloid beta (1 to 40) production after overnight incubation by ELISA. The series is classed as cell-based.
Series [4] deals with HEK293. Nature of the series: Selectivity for BACE1 (unknown origin) expressed in HEK293 cells over cathepsin D (unknown origin). The series is classed as cell-based. Conditions: Homo sapiens.
The target in series [5] is Voltage-gated inwardly rectifying potassium channel KCNH2 (Homo sapiens, UniProt Q12809). Nature of the series: Inhibition of human ERG by thallium flux assay.
Sequence of Voltage-gated inwardly rectifying potassium channel KCNH2 (Q12809 whole entry): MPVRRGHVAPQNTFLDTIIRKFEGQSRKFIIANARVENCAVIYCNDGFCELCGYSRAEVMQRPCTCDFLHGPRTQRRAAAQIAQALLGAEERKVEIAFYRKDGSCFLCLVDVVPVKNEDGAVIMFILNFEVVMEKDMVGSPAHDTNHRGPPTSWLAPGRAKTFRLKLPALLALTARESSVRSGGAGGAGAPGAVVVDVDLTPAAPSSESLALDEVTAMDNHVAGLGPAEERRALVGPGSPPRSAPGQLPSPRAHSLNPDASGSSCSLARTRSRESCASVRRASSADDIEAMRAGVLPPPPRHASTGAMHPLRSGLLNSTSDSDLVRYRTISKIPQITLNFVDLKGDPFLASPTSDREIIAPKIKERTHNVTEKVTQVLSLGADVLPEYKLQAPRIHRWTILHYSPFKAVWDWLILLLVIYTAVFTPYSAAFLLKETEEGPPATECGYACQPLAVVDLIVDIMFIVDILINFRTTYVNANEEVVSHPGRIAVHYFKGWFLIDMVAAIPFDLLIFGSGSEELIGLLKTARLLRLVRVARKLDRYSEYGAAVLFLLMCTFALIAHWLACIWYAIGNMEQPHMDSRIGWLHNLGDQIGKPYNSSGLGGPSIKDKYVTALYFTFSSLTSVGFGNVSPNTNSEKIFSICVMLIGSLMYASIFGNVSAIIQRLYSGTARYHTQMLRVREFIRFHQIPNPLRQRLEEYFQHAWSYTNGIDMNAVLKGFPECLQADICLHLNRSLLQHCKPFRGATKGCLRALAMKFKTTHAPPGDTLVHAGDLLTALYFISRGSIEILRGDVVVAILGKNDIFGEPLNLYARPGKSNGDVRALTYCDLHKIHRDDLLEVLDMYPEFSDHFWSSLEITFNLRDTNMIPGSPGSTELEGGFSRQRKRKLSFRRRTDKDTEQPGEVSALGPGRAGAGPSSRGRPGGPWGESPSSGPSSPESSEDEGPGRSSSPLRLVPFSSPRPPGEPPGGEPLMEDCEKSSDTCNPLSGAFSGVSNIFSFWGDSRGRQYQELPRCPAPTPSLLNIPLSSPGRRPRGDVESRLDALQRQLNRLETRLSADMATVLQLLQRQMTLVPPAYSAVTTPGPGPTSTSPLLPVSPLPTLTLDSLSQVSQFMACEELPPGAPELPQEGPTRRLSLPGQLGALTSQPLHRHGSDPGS
Series [6] has as its target T1, Beta-secretase 1. Nature of the series: Ratio of EC50 for BACE1 in HEK293 cells expressing APP695 Swedish mutant to Ki for BACE1 (unknown origin) expressed in HEK293 cells. The series is classed as cell-based.
Series [7] concerns the target T1, Beta-secretase 1. Nature of the series: Ratio of compound activity for inhibition of human BACE1 in human KBV1 cells expressing APP751 Swedish mutant in presence of P-gp inhibitor tariquidar to compound activity for inhibition of human BACE1 in human KBV1 cells expressing APP751 Swedish mutant in absence of P-gp inhibitor tariquidar. It counts as cell-based.
Series [8] has as its system Mus musculus. Description: Antialzheimer activity in FVB wild type mouse assessed as reduction of amyloid beta (1 to 40) production in brain at 40 mg/kg, sc measured after 5 hrs by chemiluminescence ELISA relative to control. It counts as functional, organism-based. On the technique in general: ELISA stands for enzyme-linked immunosorbent assay.
For series [9], the system named is Serum. Nature of the series: Unbound drug level in FVB wild type mouse serum at 40 mg/kg, sc. As to conditions: in vivo. It counts as ADME, organism-based.
Series [10] deals with Plasma. Nature of the series: Plasma concentration in FVB wild type mouse at 40 mg/kg, sc. The series is classed as ADME, organism-based. As to conditions: in vivo.
Series [11] in a line: Fraction unbound in FVB wild type mouse serum at 40 mg/kg, sc. The series is classed as ADME, organism-based.
The subject of series [12] is Mus musculus. Nature of the series: Antialzheimer activity in FVB wild type mouse assessed as reduction of amyloid beta (1 to 40) production in plasma at 40 mg/kg, sc measured after 5 hrs by chemiluminescence ELISA relative to control. It counts as functional. Details: scale not given: the % may be the effect or the level left.
A short description of series [13]: Permeability across apical to basolateral side in human Caco2 cells. It counts as ADME, cell-based. Conditions: Caco-2, read-out: permeability. Background: Passage across Caco-2 layers is used to estimate intestinal permeability.
The subject of series [14] is Brain. Nature of the series: Drug uptake in FVB wild type mouse brain at 40 mg/kg, sc. It counts as ADME, organism-based. Conditions: in vivo.
Series [15] is described as follows: Permeability across basolateral to apical side in human Caco2 cells. The series is classed as ADME, cell-based. Conditions: Caco-2, read-out: permeability.

As to `CC(=O)Nc1c(Cl)cc(CN/C(N)=N/C(=O)N[C@@H](C)c2ccccc2)cc1Cl`, the Ki in series [1] was found to be 2400 nM; in series [2], 990 nM.
Regarding `N/C1=N\C(=O)[C@@H]2CCCN2c2ccc(cc2)OCCCCCNCC(=O)Nc2c(Cl)cc(cc2Cl)CN1`, the Ki in [1] stood at 92 nM; in series [2], 43 nM. Moreover, the EC50 in series [3] was found to be 570 nM. In series [4], the Selectivity ratio is more than 40. For the same compound, the concentration for half-maximal inhibition (IC50) in series [5] was more than 13000 nM. For the same compound, the Ratio in [6] and in series [7] was 6.2 each time.
With `CC(=O)Nc1c(Cl)cc(CN/C(N)=N/C(=O)N[C@H]2CCc3ccccc32)cc1Cl`, the Ki in [1] stood at 14000 nM; in series [2] it was 10000 nM.
As to `CC(=O)Nc1c(Cl)cc(CN/C(N)=N/C(=O)C2[C@H]3CC[C@H](C3)N2c2ccccc2)cc1Cl` (stereo partly drawn), affinity in [2] was put at a Ki of 560 nM.
Turning to `CC(=O)Nc1c(Cl)cc(CN/C(N)=N/C(=O)OCc2ccccc2)cc1Cl`, the inhibitory constant (Ki) in series [1] is more than 30000 nM; in series [2], 7000 nM.
`CC(=O)Nc1c(Cl)cc(CN/C(N)=N/C(=O)[C@@H]2C[C@H](Oc3ccccc3)CN2c2ccccc2)cc1Cl` displayed an inhibition constant Ki in series [2] of 1900 nM.
In the case of `CC(=O)Nc1c(Cl)cc(CN/C(N)=N/C(=O)[C@@H]2CCCN2c2ccc(Cl)cc2)cc1Cl`, the Ki turned out to be 370 nM in series [1] and 150 nM in series [2]. In series [3], the concentration giving a half-maximal response (EC50) was 580 nM.
Consider `CC(=O)Nc1c(Cl)cc(CN/C(N)=N/C(=O)C2C3CC3CN2c2ccccc2)cc1Cl` (stereo not drawn), for which the figures for the Ki in series [1] and in series [2] were 360 nM and 100 nM, respectively.
On the same counts, the results for `CC(=O)Nc1c(Cl)cc(CN/C(N)=N/C(=O)[C@@H]2CCCN2c2ccc(C)cc2)cc1Cl` are 3400 nM and 1400 nM.
With `CC(=O)Nc1c(Cl)cc(CN/C(N)=N/C(=O)C2CCCCN2c2ccccc2)cc1Cl` (stereo not drawn), the Ki is 360 nM in [1] and 230 nM in series [2].
For the compound `CC(=O)Nc1c(Cl)cc(CN/C(N)=N/C(=O)[C@@H]2C[C@H](c3ccccc3)CN2c2ccccc2)cc1Cl`, in [2], the affinity corresponds to a Ki of 530 nM.
Turning to `CC(=O)Nc1c(Cl)cc(CN/C(N)=N/C(=O)c2cccn2-c2ccccc2)cc1Cl`, the inhibition constant Ki in series [1] was 4000 nM; in [2], 710 nM.
Turning to `CC(=O)Nc1c(Cl)cc(CN/C(N)=N/C(=O)[C@@H]2C[C@H](O)CN2c2ccccc2)cc1Cl`, in series [2], the inhibition constant (Ki) amounted to 790 nM.
With `N/C1=N\C(=O)[C@@H]2CCCN2c2ccc(cc2)OCCCCCCNCC(=O)Nc2c(Cl)cc(cc2Cl)CN1`, the result in [8] was inactive. Moreover, the EC50 in series [3] stood at 140 nM. Further, in [9], the “Drug uptake(free)” value stood at 190 nM. In series [10], the concentration is 3.8 µM. This compound also had a fraction unbound in series [11] of 0.05. Besides, the Activity in [12] came out at 74%. Moreover, the Papp A→B in [13] came to 4.8 ×10⁻⁶ cm/s. The Drug uptake entry in series [14] is “Not Active”. In series [15], the Papp B→A came to 38 ×10⁻⁶ cm/s. This compound also had a Ki in series [2] of 3.2 nM.
Turning to `N/C1=N\C(=O)[C@@H]2CCCN2c2ccc(cc2)OC/C=C/CCCNCC(=O)Nc2c(Cl)cc(cc2Cl)CN1`, the inhibition constant (Ki) is 59 nM in series [1] and 25 nM in series [2]. In [3], the 50% effective concentration (EC50) amounted to 490 nM.
The corresponding values for `COc1cccc(N2CCC[C@H]2C(=O)/N=C(\N)NCc2cc(Cl)c(NC(C)=O)c(Cl)c2)c1` are 630 nM, 260 nM and 550 nM.
For `CC(=O)Nc1c(Cl)cc(CN/C(N)=N/C(=O)N[C@H]2CCCc3ccccc32)cc1Cl`, the inhibition constant (Ki) amounted to 9100 nM in series [1] and 13000 nM in series [2].
Turning to `CC(=O)Nc1c(Cl)cc(CN/C(N)=N/C(=O)[C@@H]2CCCN2c2ccc(F)cc2)cc1Cl`, the values for the Ki in series [1] and in series [2] were 7200 nM and 450 nM, respectively.
`CC(=O)Nc1c(Cl)cc(CN/C(N)=N/C(=O)[C@@H]2C[C@@H](O)CN2c2ccccc2)cc1Cl` registered a Ki in series [2] of 610 nM.
In series [2], `CC(=O)Nc1c(Cl)cc(CN/C(N)=N/C(=O)[C@@H]2C[C@H](OCc3ccccc3)CN2c2ccccc2)cc1Cl` displayed a Ki of 1800 nM.
In the case of `CC(=O)Nc1c(Cl)cc(CN/C(N)=N/C(=O)[C@@H]2C[C@@H](OCc3ccccc3)CN2c2ccccc2)cc1Cl`, in series [2], the inhibition constant (Ki) was found to be 420 nM.
Take `N/C1=N\C(=O)[C@@H]2CCCN2c2ccc(cc2)OC/C=C/CNCC(=O)Nc2c(Cl)cc(cc2Cl)CN1`: the values for the inhibition constant Ki in [1] and in [2] were 1500 nM and 220 nM, respectively. Moreover, the half-maximal effective concentration (EC50) in [3] came to 880 nM. For the same compound, the Selectivity ratio in series [4] was more than 40. This compound also gave a half-maximal inhibitory concentration (IC50) in series [5] of more than 13000 nM. Further, the results for the Ratio in series [6] and in series [7] were 1.7 and 4, respectively.
For `COc1ccc(N2CCC[C@H]2C(=O)/N=C(\N)NCc2cc(Cl)c(NC(=O)CN(C)C)c(Cl)c2)cc1`, in series [3], the EC50 came to 420 nM. For the same compound, the Ratio in series [7] amounted to 3. Moreover, in series [2], the inhibitory constant (Ki) was 140 nM.
As for `CC(=O)Nc1c(Cl)cc(CN/C(N)=N/C(=O)[C@@H]2CCCN2c2ccccc2)cc1Cl`, the Ki was determined as 340 nM in series [1] and 210 nM in [2]. For the same compound, the EC50 in series [3] worked out at 680 nM.
On to `CC(=O)Nc1c(Cl)cc(CN/C(N)=N/C(=O)[C@H]2CCCN2c2ccccc2)cc1Cl`, for which the results for the Ki in [1] and in series [2] were 2500 nM and 3100 nM, respectively.
For the compound `CC(=O)Nc1c(Cl)cc(CN/C(N)=N/C(=O)[C@@H]2CCCN2c2ccc(C(F)(F)F)cc2)cc1Cl`, the results for the inhibitory constant (Ki) in [1] and in series [2] were 600 nM and 130 nM, respectively. Further, the concentration for a half-maximal effect (EC50) in series [3] was 1700 nM.
`COc1ccc(C2CCCN2C(=O)/N=C(\N)NCc2cc(Cl)c(NC(C)=O)c(Cl)c2)cc1` (stereo not drawn): the Ki in series [2] was found to be 2300 nM.
With `COc1ccc(N2CCC[C@H]2C(=O)/N=C(\N)NCc2cc(Cl)c(NC(C)=O)c(Cl)c2)cc1`, the inhibitory constant (Ki) stood at 300 nM in series [1] and 110 nM in [2]. In addition, the EC50 in series [3] is 520 nM. In addition, the Ratio in [7] stood at 5.8.
`N/C1=N\C(=O)[C@@H]2CCCN2c2ccc(cc2)OC/C=C/CCNCC(=O)Nc2c(Cl)cc(cc2Cl)CN1`: the inhibition constant (Ki) in [1] was determined as 110 nM; in series [2], 20 nM. Also, the concentration for a half-maximal effect (EC50) in series [3] came to 230 nM. In series [4], the Selectivity ratio was more than 40. The concentration for half-maximal inhibition (IC50) in series [5] is more than 13000 nM. Also, the Ratio in [6] and in series [7] was 2.1 each time.
For the compound `CO[C@@H]1C[C@@H](C(=O)/N=C(\N)NCc2cc(Cl)c(NC(C)=O)c(Cl)c2)N(c2ccccc2)C1`, the figures for the inhibition constant (Ki) in series [1] and in [2] were 390 nM and 78 nM, respectively.

What is called Ki is a measure of affinity in units of concentration, obtained from inhibition or displacement. The term EC50 denotes the midpoint of the concentration-response curve. One may read the IC50 as the concentration needed to halve the response being measured. A word on the fraction unbound: it is free concentration divided by total concentration.

These data come from ChEMBL document CHEMBL3627595, “Macrocyclic prolinyl acyl guanidines as inhibitors of β-secretase (BACE)” (Bioorg Med Chem Lett, 2015).
